# From ChEMBL document CHEMBL1144967, “Protective effect of imidazolopyrazinone antioxidants on ischemia/reperfusion injury” (2003)
# Legend:
# [1] = Antioxidant efficiency of compounds was evaluated by the lag phase duration until onset of linoleate peroxidation induced by AAPH
# [2] = tested on: Cricetinae gen. sp.; experiment: Ability to protect microvascular damages in ischemia/reperfusion (in vivo) was determined by measuring the inhibition of leaky sites, 30-min after the start of reperfusion at 30 mg/kg; type: functional, Cricetulus griseus; settings: 0.5 h
SMILES,Lag time [1],inhibition in vivo at 30 mg/kg [2]
COc1cc(C(C)=O)ccc1O [APOCYNIN],,59%
Oc1c(-c2ccc(Cl)cc2)nc2cnccn12,111 min,82%
Oc1c(-c2ccc(F)cc2)nc2cnccn12,122 min,37%
Oc1c(-c2ccc(-c3ccccc3)cc2)nc2cnccn12,77.5 min,71%

# Continued, in another order:
Lag time [1],SMILES,inhibition in vivo at 30 mg/kg [2]
128 min,Cc1c(C)c2c(c(C)c1O)CCC(C)(C(=O)O)O2 (stereo not drawn),
134 min,Cc1nc2cnccn2c1O,49%
146 min,Oc1c(-c2ccccc2)nc2cnccn12,79%
78.7 min,Cc1ccc(-c2nc3cnccn3c2O)cc1,67%
74.9 min,Oc1c(-c2ccc3ccccc3c2)nc2cnccn12,57%
79.6 min,COc1ccc(-c2nc3cnccn3c2O)cc1,85%
